The values that follow come from US20100137313A1 (ASTRAZENECA AB, priority 2008, published 2010).

For the assay, the target named is S. pneumoniae Topoisomerase IV ATPase (ParE) (Streptococcus pneumoniae serotype 4, UniProt Q59961). The experiment in a line: S. pneumoniae Topoisomerase IV ATPase inhibition. The format is biochemical. Conditions: values marked * are an average of two or more data points, read-out: % Inh (13 μM) of S. pneumoniae Topoisomerase IV ATPase. The method, boiled down: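 ParE ATPase (1.25 nM) run with 160 μM ATP and 5 μg/ml sheared salmon sperm DNA in Tris pH 8.0, Mg2+, glycerol, DTT, Brij-35. Phosphate released read by malachite green/molybdate absorbance at 650 nm. IC50 from 10 compound concentrations; DMSO (2%) as 0% and EDTA (20 μM) as 100% inhibition.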
Chain of S. pneumoniae Topoisomerase IV ATPase (ParE) (Q59961 whole entry): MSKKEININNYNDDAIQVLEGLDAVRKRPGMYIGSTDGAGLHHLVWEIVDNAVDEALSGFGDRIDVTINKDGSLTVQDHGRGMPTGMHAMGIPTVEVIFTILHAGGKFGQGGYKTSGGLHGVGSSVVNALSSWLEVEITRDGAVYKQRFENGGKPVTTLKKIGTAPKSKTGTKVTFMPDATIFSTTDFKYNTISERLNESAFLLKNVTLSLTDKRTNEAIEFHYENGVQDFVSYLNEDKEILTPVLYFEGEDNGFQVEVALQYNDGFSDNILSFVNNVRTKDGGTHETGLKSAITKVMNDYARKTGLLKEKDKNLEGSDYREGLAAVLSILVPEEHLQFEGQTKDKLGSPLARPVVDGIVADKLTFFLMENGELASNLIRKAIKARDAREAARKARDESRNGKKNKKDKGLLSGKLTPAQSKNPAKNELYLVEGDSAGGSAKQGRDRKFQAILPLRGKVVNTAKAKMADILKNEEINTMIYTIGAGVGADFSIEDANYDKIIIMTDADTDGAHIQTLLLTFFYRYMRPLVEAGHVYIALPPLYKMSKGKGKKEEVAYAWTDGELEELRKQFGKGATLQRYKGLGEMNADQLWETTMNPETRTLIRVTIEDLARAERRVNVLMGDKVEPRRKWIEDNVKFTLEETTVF
As for `COc1cc(Nc2ncc(-c3cnc(OC)c(C(=O)NCCS(C)(=O)=O)c3)c(-n3nc(C(F)(F)F)cc3C)n2)cc(OC)c1` [Example 812, 5-{2-[(3,5-dimethoxyphenyl)amino]-4-[5-methyl-3-(trifluoromethyl)-1H-pyrazol-1-yl]pyrimidin-5-yl}-2-methoxy-N-[2-(methylsulfonyl)ethyl]pyridine-3-carboxamide], the inhibition at 13 µM stood at 100%.
Turning to `CONC(=O)c1cncc(-c2cnc(Nc3ccc(F)c(Cl)c3)nc2NCCc2ccncc2)c1` [Example 477, 5-(2-[(3-chloro-4-fluorophenyl)amino]-4-{[2-(pyridin-4-yl)ethyl]amino}pyrimidin-5-yl)-N-methoxypyridine-3-carboxamide], the inhibition at 13 µM was determined as 100%.
Take `O=C(O)c1cncc(-c2cnc(Nc3ccc(F)c(Cl)c3)nc2N2CCOC(CO)C2)c1` (centres unmarked) [Example 1060]: the inhibition at 13 µM is 87%.
`COc1cc(Nc2ncc(-c3cnc(OCCCS(C)(=O)=O)c(C(=O)O)c3)c(-n3nc(C(F)(F)F)cc3C)n2)cc(OC)c1` [Example 967, 5-(2-(3,5-dimethoxyphenylamino)-4-(5-methyl-3-(trifluoromethyl)-1H-pyrazol-1-yl)pyrimidin-5-yl)-2-(3-(methylsulfonyl)propoxy)nicotinic acid]: the inhibition at 13 µM worked out at 100%.
On to `CN(C)C(=O)c1cccc(-c2cnc(Nc3ccc(F)c(Cl)c3)nc2-n2ccc(C(F)(F)F)n2)c1` [Example 1148, 3-(2-(3-chloro-4-fluorophenylamino)-4-(3-(trifluoromethyl)-1H-pyrazol-1-yl)pyrimidin-5-yl)-N,N-dimethylbenzamide], for which the inhibition at 13 µM was 24%.
In the case of `COc1cc(Nc2ncc(-c3cnc(OC)c(C(=O)NS(C)(=O)=O)c3)c(-n3ccc(C(F)(F)F)n3)n2)cc(OC)c1` [Example 901, 5-(2-(3,5-dimethoxyphenylamino)-4-(3-(trifluoromethyl)-1H-pyrazol-1-yl)pyrimidin-5-yl)-2-methoxy-N-(methylsulfonyl)nicotinamide] it was 97%.
The figure for `COc1cc(F)cc(Nc2ncc(-c3cncc(C(=O)O)c3)c(-n3nc(C(F)(F)F)cc3C)n2)c1` [Example 916, 5-(2-(3-fluoro-5-methoxyphenylamino)-4-(5-methyl-3-(trifluoromethyl)-1H-pyrazol-1-yl)pyrimidin-5-yl)nicotinic acid] is 99%; for `Cc1cc(C(F)F)nn1-c1nc(Nc2ccc(F)c(Cl)c2)ncc1-c1cncc(C(=O)O)c1` [Example 530, 5-{2-[(3-chloro-4-fluorophenyl)amino]-4-[3-(difluoromethyl)-5-methyl-1H-pyrazol-1-yl]pyrimidin-5-yl}pyridine-3-carboxylic acid] it is 100%; for `CONC(=O)c1cc(-c2cnc(Nc3cc(OC)cc(OC)c3)nc2-n2nc(C(F)(F)F)cc2C)cnc1OC` [Example 810, 5-{2-[(3,5-dimethoxyphenyl)amino]-4-[5-methyl-3-(trifluoromethyl)-1H-pyrazol-1-yl]pyrimidin-5-yl}-N,2-dimethoxypyridine-3-carboxamide] it is 100%.
Consider `COC(=O)c1cc2cc(-c3cnc(Nc4ccc(F)c(Cl)c4)nc3NCCCN(C)C)ccc2s1` [Example 22, Methyl 5-{2-(3-chloro-4-fluorophenylamino)-4-[3-(dimethylamino)propylamino]pyrimidin-5-yl}benzo[b]thiophene-2-carboxylate], for which the inhibition at 13 µM stood at 85.3%.
Turning to `Cc1ccc(F)c(Nc2ncc(-c3cncc(C(=O)O)c3)c(-n3ccc(C(F)(F)F)n3)n2)c1` [Example 772, 5-{2-[(2-fluoro-5-methylphenyl)-amino]-4-[3-(trifluoromethyl)-1H-pyrazol-1-yl]pyrimidin-5-yl}pyridine-3-carboxylic acid], the inhibition at 13 µM stood at 81%.
On to `CCOC(=O)c1cncc(-c2cnc(Nc3ccc(F)c(Cl)c3)nc2N2CCC(C(=O)NC)CC2)c1` [Example 120, ethyl 5-[2-[(3-chloro-4-fluorophenyl)amino]-4-[4-(methylcarbamoyl)piper-idin-1-yl]pyrimidin-5-yl]pyridine-3-carboxylate], for which the inhibition at 13 µM came out at 73.9%.
For `CCn1cc(-c2cnc(Nc3cc(C)cc(OC)c3)nc2-n2nc(C(F)(F)F)cc2C)cc(C(=O)O)c1=O` [Example 863, 1-ethyl-5-{2-[(3-methoxy-5-methylphenyl)amino]-4-[5-methyl-3-(trifluoromethyl)-1H-pyrazol-1-yl]pyrimidin-5-yl}-2-oxo-1,2-dihydropyridine-3-carboxylic acid], the inhibition at 13 µM came to 100%.
In the case of `CCOC(=O)c1cncc(-c2cnc(Nc3ccc(F)c(Cl)c3)nc2NCCCN2CCS(=O)(=O)CC2)c1` [Example 105, 5-{2-(3-Chloro-4-fluoro-phenylamino)-4-[3-(1,1-dioxo-1λ^6-thiomorpholin-4-yl)-propylamino]-pyrimidin-5-yl}-nicotinic acid ethyl ester] it was 79.2%.
For `Cc1[nH]ncc1CCCNc1nc(Nc2ccc(F)c(Cl)c2)ncc1-c1cncc(C(=O)O)c1` [Example 274, 5-(2-(3-chloro-4-fluorophenylamino)-4-(3-(5-methyl-1H-pyrazol-4-yl)propylamino)pyrimidin-5-yl)nicotinic acid], the inhibition at 13 µM worked out at 88%.
For `COCCOc1ncc(-c2cnc(Nc3ccc(F)c(Cl)c3)nc2-n2nc(C(F)(F)F)cc2C)cc1C(=O)O` [Example 1130, 5-(2-(3-chloro-4-fluorophenylamino)-4-(5-methyl-3-(trifluoromethyl)-1H-pyrazol-1-yl)pyrimidin-5-yl)-2-(2-methoxyethoxy)nicotinic acid], the inhibition at 13 µM came out at 99%.
In the case of `COc1cc(Nc2ncc(-c3cncc(C(=O)O)c3)c(-n3nc(C(F)(F)F)cc3C)n2)cc(OC)c1` [Example 636, 5-{2-[(3,5-dimethoxyphenyl)amino]-4-[5-methyl-3-(trifluoromethyl)-1H-pyrazol-1-yl]pyrimidin-5-yl}pyridin-3-carboxylic acid], the inhibition at 13 µM is 100%.
On to `Cc1cc(C)cc(Nc2ncc(-c3ccc4c(c3)C(=O)NS4(=O)=O)c(-n3ccc(C(F)(F)F)n3)n2)c1` [Example 833, 5-{2-[(3,5-dimethylphenyl)amino]-4-[3-(trifluoromethyl)-1H-pyrazol-1-yl]pyrimidin-5-yl}-1,2-benzothiazol-3(2H)-one 1,1-dioxide], for which the inhibition at 13 µM worked out at 100%.
Regarding `CN(C)CCCNc1nc(Nc2ccc(F)c(F)c2)ncc1-c1cccc(/C=C/C(=O)O)c1` [Example 336, (E)-3-(3-(2-(3,4-difluorophenylamino)-4-(3-(dimethylamino)propylamino)pyrimidin-5-yl)phenyl)acrylic acid], the inhibition at 13 µM turned out to be 83.7%.
In the case of `CCOC(=O)c1cncc(-c2cnc(Nc3ccc(F)c(Cl)c3)nc2NCc2cnc(C)cn2)c1` [Example 115, ethyl 5-[2-[(3-chloro-4-fluorophenyl)amino]-4-[(5-methylpyrazin-2-yl)methylamino]pyrimidin-5-yl]pyridine-3-carboxylate], the inhibition at 13 µM amounted to 28.8%.
Take `O=C(O)c1cncc(-c2cnc(Nc3ccc(F)c(Cl)c3)nc2NCCc2ccccn2)c1` [Example 228, 5-[2-(3-Chloro-4-fluoro-phenylamino)-4-(2-pyridin-2-yl-ethylamino)-pyrimidin-5-yl]-nicotinic acid]: the inhibition at 13 µM was determined as 78.5%.
For `O=C(O)c1cc(-c2cnc(Nc3ccc(F)c(Cl)c3)nc2-n2ccc(C(F)(F)F)n2)cnc1OCCN1CCOCC1` [Example 1140, 5-(2-(3-chloro-4-fluorophenylamino)-4-(3-(trifluoromethyl)-1H-pyrazol-1-yl)pyrimidin-5-yl)-2-(2-morpholinoethoxy)nicotinic acid], the inhibition at 13 µM was 100%.
With `Fc1ccc(Nc2ncc(-c3cncnc3)c(NCc3cccnc3)n2)cc1Cl` [Example 39, N^2-(3-chloro-4-fluorophenyl)-N^4-(pyridin-3-ylmethyl)-5-pyrimidin-5-ylpyrimidine-2,4-diamine], the inhibition at 13 µM was 63%.
On to `CN1CCN(CCNc2nc(Nc3ccc(F)c(Cl)c3)ncc2-c2cccc(/C=C/C(=O)O)c2)CC1` [Example 270, (2E)-3-[3-(2-[(3-chloro-4-fluorophenyl)amino]-4-{[2-(4-methylpiperazin-1-yl)ethyl]amino}pyrimidin-5-yl)phenyl]prop-2-enoic acid], for which the inhibition at 13 µM was found to be 87.7%.
In the case of `Cc1cc(-c2nccs2)nn1-c1nc(Nc2ccc(F)c(Cl)c2)ncc1-c1cncc(C(=O)O)c1` [Example 529, 5-{2-[(3-chloro-4-fluorophenyl)amino]-4-[5-methyl-3-(1,3-thiazol-2-yl)-1H-pyrazol-1-yl]pyrimidin-5-yl}pyridine-3-carboxylic acid], the inhibition at 13 µM came out at 100%.
`CCOC(=O)c1cncc(-c2cnc(Nc3ccc(F)c(Cl)c3)nc2N2CCC(F)CC2)c1` [Example 121, ethyl 5-[2-[(3-chloro-4-fluorophenyl)amino]-4-(4-fluoropiperidin-1-yl)pyrimidin-5-yl]pyridine-3-carboxylate]: the inhibition at 13 µM worked out at 49.6%.
As for `CCOC(=O)c1cncc(-c2cnc(Nc3cc(OC)cc(-n4cnnn4)c3)nc2N2CCOCC2)c1` [Example 380, 5-[2-(3-Methoxy-5-tetrazol-1-yl-phenylamino)-4-morpholin-4-yl-pyrimidin-5-yl]-nicotinic acid ethyl ester], the inhibition at 13 µM amounted to 37%.
Regarding `CN(C)CCCNc1nc(Nc2ccc(F)c(Cl)c2)ncc1-c1cn[nH]c1` [Example 20, N^2-(3-chloro-4-fluorophenyl)-N^4-[3-(dimethylamino)propyl]-5-(1H-pyrazol-4-yl)pyrimidine-2,4-diamine], the inhibition at 13 µM stood at 74.6%.
In the case of `COc1cc(Nc2ncc(-c3cnc(OC)c(-c4noc(=S)[nH]4)c3)c(-n3nc(C(F)(F)F)cc3C)n2)cc(OC)c1` [Example 974, 3-(5-(2-(3,5-dimethoxyphenylamino)-4-(5-methyl-3-(trifluoromethyl)-1H-pyrazol-1-yl)pyrimidin-5-yl)-2-methoxypyridin-3-yl)-1,2,4-oxadiazol-5(4H)-thione] it was 89%.
